Reference: patent US20130102593A1, “PYRROLIDINE COMPOUNDS WHICH INHIBIT BETA-SECRETASE ACTIVITY AND METHODS OF USE THEREOF” (priority 2008, published 2013)

Tested on: Aβ production
Experiment: Cellular Aβ IC50 determination (memapsin 2 activity in a cellular assay of Aβ production)
Assay type: cell-based, Chinese hamster
Settings: Cricetulus griseus; Chinese hamster ovary cells over-expressing human APP695 with London and Swedish mutations, 24 h, Aβ40 sandwich ELISA; read-out: M2 IC50
Protocol: The potency of compounds against memapsin 2 activity was determined in a cellular assay of Aβ production. […] Chinese hamster ovary cells that over-express human APP695 with the London and Swedish mutations were seeded in multi-well plates at 10% confluency. Compounds are dissolved in DMSO to concentrations near 1 mM, and diluted into culture media to a final concentration near 4 μM (final 0.4% DMSO). Compounds were diluted serially and applied to cells in multi-well plates 48 h after seeding. Incubation was continued in 5% CO2 at 37° C. for 24 h. Aliquots were removed and assayed for […] content using a sandwich ELISA (BioSource International). Amount of Aβ40 over the range of concentration of compounds, relative to control incubations, were fit to a 4-parameter IC50 model.

Row | IC50 | Structure (SMILES)
1 | > 1000 nM | Cc1csc(CN(C)C(=O)c2cccc(C(=O)N[C@@H](Cc3ccccc3)[C@H](O)[C@H]3CCCN3C(=O)OC(C)(C)C)c2)n1 [1-1, (R)-tert-butyl 2-((1S,2S)-1-hydroxy-2-(3-(methyl((4-methylthiazol-2-yl)methyl)carbamoyl)benzamido)-3-phenylpropyl)pyrrolidine-1-carboxylate]
2 | > 1000 nM | Cc1csc(CN(C)C(=O)c2cccc(C(=O)N[C@@H](Cc3ccccc3)[C@H](O)[C@H]3CCCN3)c2)n1 [1-2, N1-((1R,2S)-1-hydroxy-3-phenyl-1-((R)-pyrrolidin-2-yl)propan-2-yl)-N3-methyl-N3-((4-methylthiazol-2-yl)methyl)isophthalamide]
3 | > 1000 nM | Cc1coc([C@H]2CCCN2C(=O)c2cccc(C(=O)N[C@@H](Cc3ccccc3)[C@H](O)[C@H]3CCCN3)c2)n1 [1-4, N-((1R,2S)-1-hydroxy-3-phenyl-1-((R)-pyrrolidin-2-yl)propan-2-yl)-3-((R)-2-(4-methyloxazol-2-yl)pyrrolidine-1-carbonyl)benzamide]
4 | > 1000 nM | C[C@@H](NC(=O)c1cc(C(=O)N[C@@H](Cc2ccccc2)[C@H](O)[C@H]2CCCN2C(=O)OC(C)(C)C)cc(N(C)S(C)(=O)=O)c1)c1ccccc1 [1-5, (R)-tert-butyl 2-((1S,2S)-1-hydroxy-2-(3-(N-methylmethylsulfonamido)-5-((R)-1-phenylethylcarbamoyl)benzamido)-3-phenylpropyl)pyrrolidine-1-carboxylate]
5 | > 1000 nM | Cc1cc(C(=O)N[C@@H](Cc2ccccc2)[C@H](O)[C@H]2CCCN2C(=O)OC(C)(C)C)cc(C(=O)N2CCC[C@@H]2c2nc(C)co2)c1 [1-6, (R)-tert-butyl 2-((1S,2S)-1-hydroxy-2-(3-methyl-5-((R)-2-(4-methyloxazol-2-yl)pyrrolidine-1-carbonyl)benzamido)-3-phenylpropyl)pyrrolidine-1-carboxylate]
6 | > 1000 nM | Cc1csc(CN(C)C(=O)c2cc(C(=O)N[C@@H](Cc3ccccc3)[C@H](O)[C@H]3CCCN3C(=O)OC(C)(C)C)cc(-c3ncco3)c2)n1 [1-7, (R)-tert-butyl 2-((1S,2S)-1-hydroxy-2-(3-(methyl((4-methylthiazol-2-yl)methyl)carbamoyl)-5-(oxazol-2-yl)benzamido)-3-phenylpropyl)pyrrolidine-1-carboxylate]
7 | > 1000 nM | Cc1cc(C(=O)N[C@@H](Cc2ccccc2)[C@H](O)[C@H]2CCCN2)cc(C(=O)N2CCC[C@@H]2c2nc(C)co2)c1 [1-8, N-((1R,2S)-1-hydroxy-3-phenyl-1-((R)-pyrrolidin-2-yl)propan-2-yl)-3-methyl-5-((R)-2-(4-methyloxazol-2-yl)pyrrolidine-1-carbonyl)benzamide]
8 | < 500 nM | Cc1csc(CN(C)C(=O)c2cccc(C(=O)N[C@@H](Cc3ccccc3)[C@H](O)[C@H]3C[C@@H](OCc4ccccc4)CN3)c2)n1 [1-9, N1-((1R,2S)-1-((2R,4R)-4-(benzyloxy)pyrrolidin-2-yl)-1-hydroxy-3-phenylpropan-2-yl)-N3-methyl-N3-((4-methylthiazol-2-yl)methyl)isophthalamide]
9 | > 1000 nM | Cc1csc(CN(C)C(=O)c2cccc(C(=O)N[C@@H](Cc3ccccc3)[C@H](O)[C@H]3C[C@@H](O)CN3)c2)n1 [1-10, N1-((1R,2S)-1-hydroxy-1-((2R,4R)-4-hydroxypyrrolidin-2-yl)-3-phenylpropan-2-yl)-N3-methyl-N3-((4-methylthiazol-2-yl)methyl)isophthalamide]
10 | < 500 nM | C[C@@H](NC(=O)c1cc(C(=O)N[C@@H](Cc2ccccc2)[C@H](O)[C@H]2CCCN2)cc(N(C)S(C)(=O)=O)c1)c1ccccc1 [1-11, N1-((1R,2S)-1-hydroxy-3-phenyl-1-((R)-pyrrolidin-2-yl)propan-2-yl)-5-(N-methylmethylsulfonamido)-N3-((R)-1-phenylethyl)isophthalamide]
